Calls of active or inactive are those of the source. The calls are words filed in the database; no cut-off is given here. Starred links: 1 amine or outer side, 2 acyl side, 3 side chain; linkers in the order of their positions; H or OH if unused. Positions of bridges follow the written chain, without caps; N, C: chain ends. Non-standard residues stand in square brackets, D forms with d. Residues, ends and D or L forms follow the SMILES beside them. X2 = O=C(/C=C/c1csc([C@H](Cc2ccc(O)cc2)N[*:1])n1)[*:2]; X1 = CC[C@H](C)[C@H](N[*:1])C(=O)C(=O)[*:2]; Cya = N[C@@H](CS(=O)(=O)O)C(=O)O; Nva = CCC[C@H](N)C(=O)O; Abu = CC[C@H](N)C(=O)O; Dap = NC[C@H](N)C(=O)O
Columns and labels:
[1] = Inhibition of porcine pancreatic elastase using N-succinyl-Ala-Ala-Ala-p-nitroanilide as substrate preincubated with enzyme for 15 mins followed by substrate addition and measured for 30 mins; set-up: species or system Sus scrofa
Chymotrypsinogen A = Chymotrypsinogen A (Bos taurus, UniProt P00766); experiment: Inhibition of bovine pancreatic alpha chymotrypsin using N-succinyl-Gly-Gly-Phe-p-nitroanilide as substrate preincubated with enzyme for 10 mins followed by substrate addition and measured for 30 mins
OVCAR [2] = experiment: Cytotoxicity against human OVCAR cells assessed as cell viability upto 100 uM incubated for 72 hrs by resazurin dye based fluorescence assay; type: functional
HCT-116 [3] = experiment: Cytotoxicity against human HCT-116 cells assessed as cell viability upto 100 uM incubated for 72 hrs by resazurin dye based fluorescence assay; type: functional
MDA-MB-231 [4] = experiment: Cytotoxicity against human MDA-MB-231 cells assessed as cell viability upto 100 uM incubated for 72 hrs by resazurin dye based fluorescence assay; type: functional
[5] = target: Replicase polyprotein 1ab (Severe acute respiratory syndrome coronavirus 2, UniProt P0DTD1); experiment: Inhibition of SARS-CoV-2 3CLpro incubated for 4 hrs
OVCAR [6] = experiment: Cytotoxicity against human OVCAR cells assessed as cell viability at > 20 uM incubated for 72 hrs by resazurin dye based fluorescence assay; type: functional
HCT-116 [7] = experiment: Cytotoxicity against human HCT-116 cells assessed as cell viability at >20 uM incubated for 72 hrs by resazurin dye based fluorescence assay; type: functional
MDA-MB-231 [8] = experiment: Cytotoxicity against human MDA-MB-231 cells assessed as cell viability at >20 uM incubated for 72 hrs by resazurin dye based fluorescence assay; type: functional
L1210 = experiment: Cytotoxicity against mouse L1210 cells assessed as reduction in cell viability; type: functional, cell-based
KB = experiment: Cytotoxicity against human KB cells assessed as reduction in cell viability; type: functional, cell-based

Row | Compound | IC50 [1] | IC50 (Chymotrypsinogen A) | Activity (OVCAR [2]) | Activity (HCT-116 [3]) | Activity (MDA-MB-231 [4]) | IC50 [5] | other results
1 | O=S(=O)(F)Cc1ccccc1 [PHENYLMETHYLSULFONYLFLUORIDE] | 138 nM | 420 nM | – | – | – | – | –
2 | CC[C@@H]1NC(=O)[C@@H](N2C(=O)N[C@@H](C)C2=O)CNC(=O)[C@H](CS(=O)(=O)O)NC(=O)/C=C/c2csc(n2)[C@H](Cc2ccc(O)cc2)NC(=O)C(=O)[C@H]([C@@H](C)CC)NC1=O | 61.8 nM | 2700 nM | inactive | inactive | inactive | – | –
3 | CC[C@H](C)[C@@H]1NC(=O)[C@H](CC(C)C)NC(=O)[C@@H](N2C(=O)N[C@@H](C)C2=O)CNC(=O)[C@H](CS(=O)(=O)O)NC(=O)/C=C/c2csc(n2)[C@H](Cc2ccc(O)cc2)NC(=O)C1=O | 17.6 nM | 1900 nM | inactive | inactive | inactive | – | –
4 | CC(C)C[C@@H]1NC(=O)[C@H](NC(=O)N[C@@H](Cc2ccccc2)C(=O)O)CCCCNC(=O)[C@H](Cc2ccccc2)NC(=O)[C@H](Cc2c[nH]c3cc(Cl)c(O)cc23)N(C)C(=O)[C@H](CC(C)C)NC1=O | 51.3 nM | 730 nM | – | – | – | 1100 nM | –
5 | CCC[C@@H]1NC(=O)[C@@H](NC(=O)[C@H](C)N)CNC(=O)[C@H](CS(=O)(=O)O)NC(=O)/C=C/c2csc(n2)[C@H](Cc2ccc(O)cc2)NC(=O)C(=O)[C@H]([C@@H](C)CC)NC1=O (H-A[Dap][Nva][X1][X2][Cya]; lactam 2-C) | 20.1 nM | 2400 nM | – | – | – | 16100 nM | –
6 | CC[C@@H]1NC(=O)[C@@H](NC(=O)[C@H](C)N)CNC(=O)[C@H](CS(=O)(=O)O)NC(=O)/C=C/c2csc(n2)[C@H](Cc2ccc(O)cc2)NC(=O)C(=O)[C@H]([C@@H](C)CC)NC1=O (H-A[Dap][Abu][X1][X2][Cya]; lactam 2-C) | 16 nM | 1600 nM | – | – | – | – | –
7 | CCC[C@@H]1NC(=O)[C@@H](N2C(=O)N[C@@H](C)C2=O)CNC(=O)[C@H](CS(=O)(=O)O)NC(=O)/C=C/c2csc(n2)[C@H](Cc2ccc(O)cc2)NC(=O)C(=O)[C@H]([C@@H](C)CC)NC1=O | 34.8 nM | 2500 nM | inactive | inactive | inactive | – | –
8 | CC[C@H](C)[C@@H]1NC(=O)[C@H](CC(C)C)NC(=O)[C@@H](NC(=O)[C@H](C)N)CNC(=O)[C@H](CS(=O)(=O)O)NC(=O)/C=C/c2csc(n2)[C@H](Cc2ccc(O)cc2)NC(=O)C1=O (H-A[Dap]L[X1][X2][Cya]; lactam 2-C) | 28 nM | 2000 nM | – | – | – | 6100 nM | –
9 | CC(C)C[C@@H]1NC(=O)[C@H](NC(=O)N[C@@H](Cc2ccccc2)C(=O)O)CCCCNC(=O)[C@H](Cc2ccccc2)NC(=O)[C@H](Cc2c[nH]c3cc(Cl)ccc23)N(C)C(=O)[C@H](CC(C)C)NC1=O | – | – | – | – | – | 4600 nM | Activity (OVCAR [6]): Active; Activity (HCT-116 [7]): Active; Activity (MDA-MB-231 [8]): Active; IC50 (L1210): 500 nM; IC50 (KB): 970 nM

— ChEMBL document CHEMBL5390207, “Cyclotheonellazoles D-I, Potent Elastase Inhibitory Thiazole-Containing Cyclic Peptides from Theonella sp. (2131)” (J Nat Prod, 2023)
